Assay results: patent US11767319B2, “Crystalline forms of a selective c-kit kinase inhibitor” (Third Harmonic Bio, Inc., priority 2020, dated 2023)
Entries after “also recorded” stand apart in the source; their conditions may differ.

Legend:
Type in all cases: physicochemical
[1] = Form investigation in buffered media; conditions: for XRPD Pattern / pH (24 h): 24 h at 25° C.
Procedure: To investigate the polymorphic landscape of compound 1 in buffered systems, 5×20 mg of Form A slurries and 5×20 mg of amorphous slurries (amorphous material prepared using the method described in the above hydration mapping experiments) were prepared by adding 1 mL of buffer to each vial and the resulting slurries were agitated for 24 h at 25° C. The pH was measured post-buffer addition and after 24 h agitation. After 24 h, aliquots of solid were isolated via centrifugal filtration and analysed by XRPD.

[2] = Slurry experiments in SGF; conditions: 37° C., 500 rpm
Procedure: About 200 mg of sodium chloride and about 100 mg Triton X-100 was weighted into a 100-mL volumetric flask. About 100 mL of purified water was added to the flask and the solution was sonicated until all solids were completely dissolved. 1 M HCl was added to adjust the pH to 1.8 and the solution was mixed well and the pH was checked with a pH meter.
Competitive slurry experiments were performed for Forms A, H^A, H^B, C and D in SGF. About 10 mg of each form was added into separate HPLC vials followed by addition of 1.0 mL SGF in order to form slurries. The slurries were heated to 37° C. and stirred at 500 rpm. After 2 h or 24 h, the samples were centrifuged and the solids were collected for XRPD testing.

[3] = Hydration mapping starting with Form A
Procedure: To establish the hydration map of compound 1, solutions with varying water activity (aw) were prepared and the aw was measured using a water activity meter. Table 13 below details the solvent systems investigated and their corresponding measured water activities.
23×20 mg of Form A of compound 1 was weighed into vials. 1 mL of solvent (see tables above) was added to each vial to form a slurry. After manual shaking for a few seconds, where solutions were observed, an additional ˜10 to 20 mg of solid was added to produce a slurry. Additional solid was added to the 2-MeTHF, water/2-MeTHF (1:99% v/v), acetone/water (aw of 0.92) and methanol/water (aw of 0.11) samples. All slurries were then agitated for 24 h at 25° C. After 24 h, aliquots of solid were isolated via centrifugal filtration and analysed by XRPD. The remaining slurries were agitated for a further 5 days (total of 6 days). The solids were isolated and analysed by XRPD. All identified forms were analysed by XRPD, TG/DSC and ^1H NMR (where sufficient material was available).

[4] = Ethanol/hydrocarbon mixtures slurry study
Procedure: Using the methods described above for the Form A input and amorphous input experiments, 5×20 mg of Form A slurries and 5×20 mg of amorphous input slurries were prepared by adding 1 mL of solvent (see Table 16 below) to each vial and the resulting slurries were agitated for 24 h at 25° C. After 24 h, aliquots of solid were isolated via centrifugal filtration and analysed by XRPD.

[5] = Vacuum drying of Form C; conditions: dried under vacuum
Procedure: (§1) FIG. 1F depicts a set of XRPD patterns of Form C of compound 1, comparing the originally isolated form, material after DVS experiments and material after being dried under vacuum. […] Form G was also observed after vacuum drying of Form C.
Procedure A: Form C of compound 1 was dried under vacuum at 40° C. for about 2 hours. After drying Form G was recovered.

[6] = Dynamic Vapor Sorption (DVS) of Form C
Procedure: Approximately, 10 mg of sample was placed into a mesh vapor sorption balance pan and loaded into a DVS-1/DVS Intrinsic/DVS Advantage dynamic vapor sorption balance by Surface Measurement Systems. The sample was subjected to a ramping profile from 40-90% relative humidity (RH) at 10% increments, maintaining the sample at each step until a stable weight had been achieved (dm/dt 0.004%, minimum step length 30 min, maximum step length 500 min) at 25° C. After completion of the sorption cycle, the sample was dried using the same procedure to 0% RH and then a second sorption cycle back to 40% RH. Two cycles were performed. The weight change during the sorption/desorption cycles were plotted, allowing for the hygroscopic nature of the sample to be determined. XRPD analysis was then carried out on any solid retained.
FIGS. 1D and 1E depict DVS plots of Form C of compound 1. […] Below 20% RH, Form C experienced a mass loss of 8.6%, about equal to 2 equivalents of water.
as §1

[7] = Competitive slurry experiments among anhydrates (IPA/IPAc); conditions: at RT and 50° C., IPA/IPAc slurries
Procedure: Competitive slurry experiments were performed in IPA/IPAc at RT/50° C. between anhydrates Form A of compound 1 and Form D of compound 1. Form A of compound 1 was added into each solvent to form a slurry at RT or 50° C. and was stirred for 2 h. The slurries were then filtered to obtain saturated solution. Around 10 mg each of Form A of compound 1 and Form D of compound 1 were added into each solution to form a mixed slurry at RT or 50° C. […] The formation of Form H^A of compound 1 is postulated to be caused by residual water in the solvents or due to ambient humidity (˜35% humidity during slurry experiments).

[8] = Acetone/Water, aw 0.1363, 25° C.
[9] = Acetone/Water, aw 0.2621, 25° C.
[10] = Acetone/Water, aw 0.5455, 25° C.
[11] = EtOH/Heptane, aw 0.0300, 25° C.
[12] = Water/2-MeTHF, aw 0.5286, 25° C.

## Cc1ccc(-c2noc([C@H]3C[C@@H]3F)n2)cc1NC(=O)c1cnc2ccccn12 [Form A, N-(5-(5-((1R,2S)-2-fluorocyclopropyl)-1,2,4-oxadiazol-3-yl)-2-methylphenyl)imidazo[1,2-a]pyridine-3-carboxamide]
[1]; NaOH (0.2M)
  XRPD Pattern: Form H^A and Form C
[1]; pH 1.2 (HCl—KCl)
  XRPD Pattern: HCl Salt Form
[1]; pH 4.5 (acetate)
  XRPD Pattern: Form F
[1]; pH 6.8 (phosphate)
  XRPD Pattern: Form H^A
[1]; pH 8 (PBS)
  XRPD Pattern: Form H^A
[1]; slurry in NaOH (0.2M)
  pH (Post-Buffer Addition): 11.98
  pH (24 h): 11.91
[1]; slurry in pH 1.2 (HCl—KCl)
  pH (Post-Buffer Addition): 1.20
  pH (24 h): 1.19
[1]; slurry in pH 4.5 (acetate)
  pH (Post-Buffer Addition): 4.63
  pH (24 h): 4.62
[1]; slurry in pH 6.8 (phosphate)
  pH (Post-Buffer Addition): 6.87
  pH (24 h): 6.88
[1]; slurry in pH 8 (PBS)
  pH (Post-Buffer Addition): 8.04
  pH (24 h): 8.17
[2]
  XRPD at 2 h: transformed to Form C
  XRPD at 24 h: transformed to Form C
[3]; 2-MeTHF, aw 0.0378, 25° C.
  XRPD pattern observed, 24 h: Form A
  XRPD pattern observed, 6 Days: Form A
[3]; [8]
  XRPD pattern observed, 24 h: Form H^A
  XRPD pattern observed, 6 Days: Form H^A
[3]; [9]
  XRPD pattern observed, 24 h: Form H^A
  XRPD pattern observed, 6 Days: Form H^A
[3]; [10]
  XRPD pattern observed, 24 h: Form H^A
  XRPD pattern observed, 6 Days: Form H^A
[3]; Acetone/Water, aw 0.7082, 25° C.
  XRPD pattern observed, 6 Days: Form H^A
[3]; [11]
  XRPD pattern observed, 24 h: Form A
  XRPD pattern observed, 6 Days: Form A
[3]; EtOH/Water, aw 0.1580, 25° C.
  XRPD pattern observed, 24 h: Form H^A
  XRPD pattern observed, 6 Days: Form H^A
[3]; EtOH/Water, aw 0.3377, 25° C.
  XRPD pattern observed, 24 h: Form H^A
  XRPD pattern observed, 6 Days: Form H^A
[3]; EtOH/Water, aw 0.4986, 25° C.
  XRPD pattern observed, 24 h: Form H^A
  XRPD pattern observed, 6 Days: Form H^A
[3]; EtOH/Water, aw 0.7600, 25° C.
  XRPD pattern observed, 24 h: Form H^A
  XRPD pattern observed, 6 Days: Form H^A
[3]; EtOH/Water, aw 0.9005, 25° C.
  XRPD pattern observed, 24 h: Form A
[3]; MeCN/Water, aw 0.1060, 25° C.
  XRPD pattern observed, 24 h: Form H^A
  XRPD pattern observed, 6 Days: Form H^A
[3]; MeCN/Water, aw 0.3664, 25° C.
  XRPD pattern observed, 24 h: Form H^A
  XRPD pattern observed, 6 Days: Form H^A
[3]; MeCN/Water, aw 0.5573, 25° C.
  XRPD pattern observed, 24 h: Form H^A
  XRPD pattern observed, 6 Days: Form H^A
[3]; MeCN/Water, aw 0.7300, 25° C.
  XRPD pattern observed, 6 Days: Form H^A
[3]; MeOH/Water, aw 0.0963, 25° C.
  XRPD pattern observed, 24 h: Form H^A
  XRPD pattern observed, 6 Days: Form H^A
[3]; MeOH/Water, aw 0.3242, 25° C.
  XRPD pattern observed, 24 h: Form H^A
  XRPD pattern observed, 6 Days: Form H^A
[3]; MeOH/Water, aw 0.5145, 25° C.
  XRPD pattern observed, 24 h: Form H
  XRPD pattern observed, 6 Days: Form H^A
[3]; MeOH/Water, aw 0.6965, 25° C.
  XRPD pattern observed, 24 h: Form H
  XRPD pattern observed, 6 Days: Form H
[3]; MeOH/Water, aw 0.9294, 25° C.
  XRPD pattern observed, 24 h: Form A
  XRPD pattern observed, 6 Days: Form C
[3]; [12]
  XRPD pattern observed, 24 h: Form H^A
  XRPD pattern observed, 6 Days: Form H^A
[4]; EtOH/Cyclohexane (50:50% v/v), aw 0.025, 24 h at 25° C.
  XRPD pattern observed: Form A
[4]; EtOH/Dodecane (50:50% v/v), aw 0.024, 24 h at 25° C.
  XRPD pattern observed: Form A
[4]; EtOH/Hexane (50:50% v/v), aw 0.018, 24 h at 25° C.
  XRPD pattern observed: Form A
[4]; EtOH/Methylcyclohexane (50:50% v/v), aw 0.019, 24 h at 25° C.
  XRPD pattern observed: Form A
[4]; EtOH/Octane (50:50% v/v), aw 0.019, 24 h at 25° C.
  XRPD pattern observed: Form A

## Cc1ccc(-c2noc([C@H]3C[C@@H]3F)n2)cc1NC(=O)c1cnc2ccccn12 [Form C, N-(5-(5-((1R,2S)-2-fluorocyclopropyl)-1,2,4-oxadiazol-3-yl)-2-methylphenyl)imidazo[1,2-a]pyridine-3-carboxamide]
[5]
  form after vacuum drying (XRPD): Form G
[6]; after DVS experiments
  form after DVS (XRPD): converted into Form G
[6]; below 20% RH, 25° C.
  mass loss (DVS): 8.6%
[6]; between 20% and 90% RH, 25° C.
  total mass uptake (DVS): 0.6%
[2]
  XRPD at 2 h: No form change; also recorded: Form C
  XRPD at 24 h: No form change; also recorded: Form C

## Cc1ccc(-c2noc([C@H]3C[C@@H]3F)n2)cc1NC(=O)c1cnc2ccccn12 [Form H^A, N-(5-(5-((1R,2S)-2-fluorocyclopropyl)-1,2,4-oxadiazol-3-yl)-2-methylphenyl)imidazo[1,2-a]pyridine-3-carboxamide]
[2]
  XRPD at 2 h: No form change; also recorded: Form H^A
  XRPD at 24 h: No form change; also recorded: Form H^A
[2]; listed as Form H^B
  XRPD at 2 h: No form change; also recorded: Form H^B
  XRPD at 24 h: No form change; also recorded: Form H^B
[7]
  relative thermodynamic stability: thermodynamically more stable than Form A
